Data on 4 molecules can be found in PubChem BioAssay AID1259407 (Chemical Carcinogenesis Research Information System (CCRIS), 2018).

The test system of the data set is CCRIS mutagenicity, Ames/micronucleus/aberration tests. Put plainly: CCRIS mutagenicity studies.
Setting [1] is: Test System: AMES SALMONELLA TYPHIMURIUM, Strain/Indicator: TA97, Metabolic Activation: NONE, Method: PREINCUBATION
Where [2] appears, read: Test System: AMES SALMONELLA TYPHIMURIUM, Strain/Indicator: TA98, Metabolic Activation: NONE, Method: PREINCUBATION
Where [3] appears, read: Test System: AMES SALMONELLA TYPHIMURIUM, Strain/Indicator: TA100, Metabolic Activation: NONE, Method: PREINCUBATION
Setting [4] is: Test System: AMES SALMONELLA TYPHIMURIUM, Strain/Indicator: TA1535, Metabolic Activation: NONE, Method: PREINCUBATION

Molecules are shown by their SMILES. The source made the active and inactive calls. How the calls were made is not given here.

Regarding `Cc1cc2c(c3ccc4ccccc4c13)CCC2=O`, the mutagenic call by setting is: (Test System: AMES SALMONELLA TYPHIMURIUM, Strain/Indicator: TA98, Metabolic Activation: RAT, LIVER, S-9, AROCLOR 1254, Method: STANDARD PLATE) “active; positive”; (Test System: AMES SALMONELLA TYPHIMURIUM, Strain/Indicator: TA100, Metabolic Activation: RAT, LIVER, MICROSOMES, 15,16-DIHYDRO-11-METHYL-17(H)-CYCLOPENTA[A] PHENANTHREN-17-ONE, Method: STANDARD PLATE) “inactive; negative”; (Test System: AMES SALMONELLA TYPHIMURIUM, Strain/Indicator: TA100, Metabolic Activation: RAT, LIVER, MICROSOMES, BENZO[A]PYRENE, Method: STANDARD PLATE) “active; positive”; (Test System: AMES SALMONELLA TYPHIMURIUM, Strain/Indicator: TA100, Metabolic Activation: RAT, LIVER, MICROSOMES, CLOFIBRATE, Method: STANDARD PLATE) “inactive; negative”; (Test System: AMES SALMONELLA TYPHIMURIUM, Strain/Indicator: TA100, Metabolic Activation: RAT, LIVER, MICROSOMES, DEXAMETHASONE, Method: STANDARD PLATE) “inactive; negative”; (Test System: AMES SALMONELLA TYPHIMURIUM, Strain/Indicator: TA100, Metabolic Activation: RAT, LIVER, MICROSOMES, ISONIAZID, Method: STANDARD PLATE) “inactive; negative”. The mutagenic call (Test System: AMES SALMONELLA TYPHIMURIUM, Strain/Indicator: TA100, Metabolic Activation: RAT, LIVER, MICROSOMES, PHENOBARBITONE, Method: STANDARD PLATE) is “inactive; negative”; the mutagenic call (Test System: AMES SALMONELLA TYPHIMURIUM, Strain/Indicator: TA100, Metabolic Activation: RAT, LIVER, MICROSOMES, Method: STANDARD PLATE) is “inactive; negative”; the mutagenic call (Test System: AMES SALMONELLA TYPHIMURIUM, Strain/Indicator: TA100, Metabolic Activation: RAT, LIVER, S-9, AROCLOR 1254, Method: STANDARD PLATE) was “active; positive”; the mutagenic call (Test System: AMES SALMONELLA TYPHIMURIUM, Strain/Indicator: TA1538, Metabolic Activation: RAT, LIVER, S-9, AROCLOR 1254, Method: STANDARD PLATE) is “active; positive”.

For `OCC(O)CO`, the mutagenic call (End Point: IN VITRO CHROMOSOMAL ABERRATIONS, Test System: CHO-WBL CELLS, Metabolic Activation: NONE) was “inactive; negative”; the mutagenic call under setting [1] is “inactive; negative”; the mutagenic call (Test System: AMES SALMONELLA TYPHIMURIUM, Strain/Indicator: TA97, Metabolic Activation: RAT, LIVER, S-9, AROCLOR 1254, Method: PREINCUBATION) is “inactive; negative”; the mutagenic call under setting [2] is “inactive; negative”; the mutagenic call (Test System: AMES SALMONELLA TYPHIMURIUM, Strain/Indicator: TA98, Metabolic Activation: RAT, LIVER, S-9, KC 500, Method: PREINCUBATION) was “inactive; negative”; the mutagenic call under setting [3] is “inactive; negative”. For the same molecule, the mutagenic call (Test System: AMES SALMONELLA TYPHIMURIUM, Strain/Indicator: TA100, Metabolic Activation: RAT, LIVER, S-9, KC 500, Method: PREINCUBATION) was “inactive; negative”; the mutagenic call (Test System: AMES SALMONELLA TYPHIMURIUM, Strain/Indicator: TA102, Metabolic Activation: NONE, Method: PREINCUBATION) was “inactive; negative”; the mutagenic call (Test System: AMES SALMONELLA TYPHIMURIUM, Strain/Indicator: TA102, Metabolic Activation: RAT, LIVER, S-9, AROCLOR 1254, Method: PREINCUBATION) is “inactive; negative”; the mutagenic call under setting [4] is “inactive; negative”; the mutagenic call (Test System: AMES SALMONELLA TYPHIMURIUM, Strain/Indicator: TA1535, Metabolic Activation: RAT, LIVER, S-9, KC 500, Method: PREINCUBATION) was “inactive; negative”; the mutagenic call (Test System: AMES SALMONELLA TYPHIMURIUM, Strain/Indicator: TA1537, Metabolic Activation: NONE, Method: PREINCUBATION) was “inactive; negative”. In addition, the mutagenic call was “inactive; negative” (Test System: AMES SALMONELLA TYPHIMURIUM, Strain/Indicator: TA1537, Metabolic Activation: RAT, LIVER, S-9, KC 500, Method: PREINCUBATION); “inactive; negative” (Test System: AMES SALMONELLA TYPHIMURIUM, Strain/Indicator: TA1538, Metabolic Activation: NONE, Method: PREINCUBATION); “inactive; negative” (Test System: AMES SALMONELLA TYPHIMURIUM, Strain/Indicator: TA1538, Metabolic Activation: RAT, LIVER, S-9, KC 500, Method: PREINCUBATION); “inactive; negative” (Test System: E. COLI, Strain/Indicator: WP2 UVRA, Metabolic Activation: NONE, Method: PREINCUBATION); “inactive; negative” (Test System: E. COLI, Strain/Indicator: WP2 UVRA, Metabolic Activation: RAT, LIVER, S-9, KC 500, Method: PREINCUBATION).

As for `Cc1ccc(C#N)cc1`, the mutagenic call by setting is: (Test System: AMES SALMONELLA TYPHIMURIUM, Strain/Indicator: TA97, Metabolic Activation: HAMSTER, LIVER, S-9, AROCLOR 1254 (10%), Method: PREINCUBATION) “inactive; negative”; (Test System: AMES SALMONELLA TYPHIMURIUM, Strain/Indicator: TA97, Metabolic Activation: HAMSTER, LIVER, S-9, AROCLOR 1254 (30%), Method: PREINCUBATION) “inactive; negative”; under setting [1], “inactive; negative”; (Test System: AMES SALMONELLA TYPHIMURIUM, Strain/Indicator: TA97, Metabolic Activation: RAT, LIVER, S-9, AROCLOR 1254 (10%), Method: PREINCUBATION) “inactive; negative”; (Test System: AMES SALMONELLA TYPHIMURIUM, Strain/Indicator: TA97, Metabolic Activation: RAT, LIVER, S-9, AROCLOR 1254 (30%), Method: PREINCUBATION) “inactive; negative”; (Test System: AMES SALMONELLA TYPHIMURIUM, Strain/Indicator: TA98, Metabolic Activation: HAMSTER, LIVER, S-9, AROCLOR 1254 (10%), Method: PREINCUBATION) “inactive; negative”. Besides, the mutagenic call by setting is: (Test System: AMES SALMONELLA TYPHIMURIUM, Strain/Indicator: TA98, Metabolic Activation: HAMSTER, LIVER, S-9, AROCLOR 1254 (30%), Method: PREINCUBATION) “inactive; negative”; under setting [2], “inactive; negative”; (Test System: AMES SALMONELLA TYPHIMURIUM, Strain/Indicator: TA98, Metabolic Activation: RAT, LIVER, S-9, AROCLOR 1254 (10%), Method: PREINCUBATION) “inactive; negative”; (Test System: AMES SALMONELLA TYPHIMURIUM, Strain/Indicator: TA98, Metabolic Activation: RAT, LIVER, S-9, AROCLOR 1254 (30%), Method: PREINCUBATION) “inactive; negative”; (Test System: AMES SALMONELLA TYPHIMURIUM, Strain/Indicator: TA100, Metabolic Activation: HAMSTER, LIVER, S-9, AROCLOR 1254 (10%), Method: PREINCUBATION) “inactive; negative”; (Test System: AMES SALMONELLA TYPHIMURIUM, Strain/Indicator: TA100, Metabolic Activation: HAMSTER, LIVER, S-9, AROCLOR 1254 (30%), Method: PREINCUBATION) “inactive; negative”. The mutagenic call is “inactive; negative” under setting [3]; “inactive; negative” (Test System: AMES SALMONELLA TYPHIMURIUM, Strain/Indicator: TA100, Metabolic Activation: RAT, LIVER, S-9, AROCLOR 1254 (10%), Method: PREINCUBATION); “inactive; negative” (Test System: AMES SALMONELLA TYPHIMURIUM, Strain/Indicator: TA100, Metabolic Activation: RAT, LIVER, S-9, AROCLOR 1254 (30%), Method: PREINCUBATION); “inactive; negative” (Test System: AMES SALMONELLA TYPHIMURIUM, Strain/Indicator: TA1535, Metabolic Activation: HAMSTER, LIVER, S-9, AROCLOR 1254 (10%), Method: PREINCUBATION); “inactive; negative” (Test System: AMES SALMONELLA TYPHIMURIUM, Strain/Indicator: TA1535, Metabolic Activation: HAMSTER, LIVER, S-9, AROCLOR 1254 (30%), Method: PREINCUBATION); “inactive; negative” under setting [4]. In addition, the mutagenic call is, setting by setting: (Test System: AMES SALMONELLA TYPHIMURIUM, Strain/Indicator: TA1535, Metabolic Activation: RAT, LIVER, S-9, AROCLOR 1254 (10%), Method: PREINCUBATION) “inactive; negative”; (Test System: AMES SALMONELLA TYPHIMURIUM, Strain/Indicator: TA1535, Metabolic Activation: RAT, LIVER, S-9, AROCLOR 1254 (30%), Method: PREINCUBATION) “inactive; negative”.

In the case of `Cc1c2c(c(C)c3c1ccc1ccccc13)[C@@H]1OC1[C@@H](O)[C@@H]2O` (stereo partly drawn), under “Test System: CHINESE HAMSTER V-79, Strain/Indicator: V-79/OUABAIN, Metabolic Activation: CELL-MEDIATED, Method: STANDARD PLATE”, the mutagenic call is “active; positive”.
